Source: patent US20260015344A1, “PAN-KRAS INHIBITORS” (Mirati Therapeutics, Inc., priority 2022, published 2026)

Legend:
KRas^G12A = target: T1, KRas^G12A (Homo sapiens, UniProt P01116, G12A); test: KRas Binding Assay (TR-FRET displacement), KRas G12A; conditions: TR-FRET tracer displacement
T1 construct: corresponding to amino acids 1-169, produced at Accelegan Inc; biotin (biotinylated); purchased Accelegan Inc
Protocol: (§1) This Example illustrates that exemplary compounds of the present invention bind to KRas and are capable of displacing a labeled tracer ligand occupying the KRas binding site. KRas^WT, KRas^G12A, KRas^G12C, KRas^G12D, KRas^G12R, KRas^G12S, KRas^G12V, KRas^G13D, or KRas^Q61H was used in the assay.
(§2) The ability of a compound to bind to KRas was measured using a TR-FRET displacement assay. Biotinylated KRas (corresponding to amino acids 1-169, produced at Accelegan Inc.) was incubated with custom made Cy5 labelled tracer, terbium streptavidin (Cisbio Inc.) and compound (1% DMSO final) in buffer (50 mM HEPES, pH 7.5, 5 mM MgCl2, 0.005% Tween-20 and 1 mM DTT). After a 60-minute incubation at room temperature, the reaction was measured using a BMG LABTECH CLARIO star Plus via TR-FRET. […] The POC values were fit to a 4-parameter IC50 equation and the IC50 value reported.

KRas^G13D = target: T2, KRas^G13D (Homo sapiens, UniProt P01116, G13D); test: KRas Binding Assay (TR-FRET displacement), KRas G13D; conditions: TR-FRET tracer displacement
T2 construct: corresponding to amino acids 1-169, produced at Accelegan Inc; biotin (biotinylated); purchased Accelegan Inc
T2 sequence (P01116 1-169 isoform P01116-2 G13D): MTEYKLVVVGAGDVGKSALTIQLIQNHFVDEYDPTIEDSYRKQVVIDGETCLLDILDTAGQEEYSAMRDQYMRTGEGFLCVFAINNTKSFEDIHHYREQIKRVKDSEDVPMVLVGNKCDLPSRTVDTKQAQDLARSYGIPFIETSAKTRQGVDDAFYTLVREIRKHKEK
Protocol: as §1, §2

KRas^G12R = target: T3, KRas^G12R (Homo sapiens, UniProt P01116, G12R); test: KRas Binding Assay (TR-FRET displacement), KRas G12R; conditions: TR-FRET tracer displacement
T3 construct: corresponding to amino acids 1-169, produced at Accelegan Inc; biotin (biotinylated); purchased Accelegan Inc
T3 sequence (P01116 1-169 isoform P01116-2 G12R): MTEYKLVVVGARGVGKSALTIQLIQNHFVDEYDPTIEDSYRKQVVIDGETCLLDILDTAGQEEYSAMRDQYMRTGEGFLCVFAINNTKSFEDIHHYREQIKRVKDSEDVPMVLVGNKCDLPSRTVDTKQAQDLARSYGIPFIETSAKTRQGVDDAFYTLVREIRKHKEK
Protocol: as §1, §2

KRas^G12C = target: T4, KRas^G12C (Homo sapiens, UniProt P01116, G12C); test: KRas Binding Assay (TR-FRET displacement), KRas G12C; conditions: TR-FRET tracer displacement
T4 construct: corresponding to amino acids 1-169, produced at Accelegan Inc; biotin (biotinylated); purchased Accelegan Inc
T4 sequence (P01116 1-169 isoform P01116-2 G12C): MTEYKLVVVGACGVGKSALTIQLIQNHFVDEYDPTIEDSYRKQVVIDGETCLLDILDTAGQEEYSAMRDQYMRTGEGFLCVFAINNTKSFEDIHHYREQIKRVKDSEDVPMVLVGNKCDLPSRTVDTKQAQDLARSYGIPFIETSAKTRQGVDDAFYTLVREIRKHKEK
Protocol: as §1, §2

KRas^G12V = target: T5, KRas^G12V (Homo sapiens, UniProt P01116, G12V); test: KRas Binding Assay (TR-FRET displacement), KRas G12V; conditions: TR-FRET tracer displacement
T5 construct: corresponding to amino acids 1-169, produced at Accelegan Inc; biotin (biotinylated); purchased Accelegan Inc
T5 sequence (P01116 1-169 isoform P01116-2 G12V): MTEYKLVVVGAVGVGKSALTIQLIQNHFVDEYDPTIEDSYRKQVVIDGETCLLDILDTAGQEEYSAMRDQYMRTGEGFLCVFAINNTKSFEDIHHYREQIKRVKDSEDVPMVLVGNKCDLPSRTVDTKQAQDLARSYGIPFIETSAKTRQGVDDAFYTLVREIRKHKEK
Protocol: as §1, §2

KRas^WT = target: T6, KRas^WT (Homo sapiens, UniProt P01116); test: KRas Binding Assay (TR-FRET displacement), KRas WT; conditions: TR-FRET tracer displacement
T6 construct: corresponding to amino acids 1-169, produced at Accelegan Inc; biotin (biotinylated); purchased Accelegan Inc
T6 sequence (P01116 1-169 isoform P01116-2): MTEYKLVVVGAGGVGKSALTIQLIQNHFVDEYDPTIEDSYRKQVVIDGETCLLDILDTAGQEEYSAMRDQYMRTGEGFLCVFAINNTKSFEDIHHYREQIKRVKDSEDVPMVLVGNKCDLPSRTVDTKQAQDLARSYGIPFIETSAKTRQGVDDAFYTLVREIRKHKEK
Protocol: as §1, §2

KRas^G12S = target: T7, KRas^G12S (Homo sapiens, UniProt P01116, G12S); test: KRas Binding Assay (TR-FRET displacement), KRas G12S; conditions: TR-FRET tracer displacement
T7 construct: corresponding to amino acids 1-169, produced at Accelegan Inc; biotin (biotinylated); purchased Accelegan Inc
T7 sequence (P01116 1-169 isoform P01116-2 G12S): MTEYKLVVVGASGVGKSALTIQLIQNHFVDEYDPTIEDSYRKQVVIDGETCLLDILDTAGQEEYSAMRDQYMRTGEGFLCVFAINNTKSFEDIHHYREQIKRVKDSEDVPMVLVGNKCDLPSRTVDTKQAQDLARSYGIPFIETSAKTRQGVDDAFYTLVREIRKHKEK
Protocol: as §1, §2

KRas^Q61H = target: T8, KRas^Q61H (Homo sapiens, UniProt P01116, Q61H); test: KRas Binding Assay (TR-FRET displacement), KRas Q61H; conditions: TR-FRET tracer displacement
T8 construct: corresponding to amino acids 1-169, produced at Accelegan Inc; biotin (biotinylated); purchased Accelegan Inc
T8 sequence (P01116 1-169 isoform P01116-2 Q61H): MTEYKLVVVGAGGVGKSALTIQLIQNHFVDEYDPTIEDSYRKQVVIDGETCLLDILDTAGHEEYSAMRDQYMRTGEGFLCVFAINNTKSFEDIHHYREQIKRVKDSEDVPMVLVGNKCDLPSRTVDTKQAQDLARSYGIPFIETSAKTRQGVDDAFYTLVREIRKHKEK
Protocol: as §1, §2

KRas^G12D = target: T9, KRas^G12D (Homo sapiens, UniProt P01116, G12D); test: KRas Binding Assay (TR-FRET displacement), KRas G12D; conditions: TR-FRET tracer displacement
T9 construct: corresponding to amino acids 1-169, produced at Accelegan Inc; biotin (biotinylated); purchased Accelegan Inc
T9 sequence (P01116 1-169 isoform P01116-2 G12D): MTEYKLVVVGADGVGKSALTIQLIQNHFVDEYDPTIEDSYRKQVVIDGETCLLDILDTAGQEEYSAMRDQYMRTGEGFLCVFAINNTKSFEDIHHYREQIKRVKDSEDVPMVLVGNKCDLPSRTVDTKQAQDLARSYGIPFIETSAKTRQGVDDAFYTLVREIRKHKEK
Protocol: as §1, §2

[1] = test system: KRas-mediated Phosphorylation of ERK in H727 cells; test: HTRF pERK assay, H727 cells; type: cell-based; conditions: Homo sapiens, NCI-H727, 3 hrs compound incubation, read-out: Inhibition (HTRF IC50 nM) of KRas-mediated Phosphorylation of ERK, H727
Protocol: (§3) • Day 1: Seed 6,000 cells/well-25 μl/well in 384-well white solid bottom plate; RPM1_10% FBS.
(§4) • 1. To harvest cells from flask using 0.05% Trypsin/EDTA solution. Add 10 mL of media to stop trypsinizing. Pipette the cells into a conical bottom 50 mL centrifuge tube and centrifuge 5 min×1000 rpm. • 2. Re-suspend the cell pellet in media, take a cell count, and then adjust the cell density using fresh media. • 3. Seed 6,000 cells into cell culture plate with 50 μL media. The • 4. Incubate cell plate overnight in a 37° C., 5% CO2 incubator.
(§5) • 1. Use Tecan to complete the compound addition. Compounds start from 10 uM top, 3-fold dilution, and 10 doses. The final DMSO concentration is 0.8%. Dispensed 0.2 uM Trametinib as Min control. • 2. Incubate cell plate for 3 hrs in the incubator. Detection with Cisbio pERK HTRF Kit • 1. Dilute 1 volume of 4× lysis buffer with 3 volumes of deionized water. Then, add 100× the blocking reagent. Keep lysis buffer on the ice. • 2. At the end of the compound treatment, flick-off the media. • 3. Add 35 μL of lysis buffer per well using a Multidrop Combi. Then place on a plate agitator shaking at 300 rpm at 4° C. for 40 mins. • 4. Make up the HTRF antibody buffer. For each assay plate, mix 50 μL of d2-conjugate antibody with 950 μL of detection buffer. Similarly, mix 50 μL of Cryptate antibody with 950 μL of detection buffer. Then mix the two diluted antibodies together. • 5. Dispense 3.4 μL the antibody buffer to wells of an empty assay plate. Seal the plate and centrifuge plate 30 sec×1000 rpm. • 6. At the end of the 4° C. lysis, centrifuge the lysate plates 3 mins×1500 rpm. • 7. Use the Bravo to transfer 13.6 μL of lysate from cell culture plate to assay plate. Then incubate assay plate for 2 hrs at room temperature. • 8. At the end of incubation, read plate on the Envision after centrifuging plate 30 sec×1000 rpm.

[2] = test system: KRas-mediated Phosphorylation of ERK in AsPC-1 cells; test: HTRF pERK assay, AsPC-1 cells; type: cell-based; conditions: Homo sapiens, ASPC1, 3 hrs compound incubation, read-out: Inhibition (HTRF IC50 nM) of KRas-mediated Phosphorylation of ERK, AsPC-1
Protocol: as §3, §4, §5

T1 sequence (P01116 1-169 isoform P01116-2 G12A): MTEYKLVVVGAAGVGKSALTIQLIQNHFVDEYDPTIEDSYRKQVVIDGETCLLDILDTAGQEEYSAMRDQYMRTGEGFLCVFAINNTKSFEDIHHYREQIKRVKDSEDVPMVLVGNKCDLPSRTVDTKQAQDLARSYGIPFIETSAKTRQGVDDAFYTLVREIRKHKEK

Row | Compound | IC50 (KRas^G12A) [nM] | IC50 (KRas^G13D) [nM] | IC50 (KRas^G12R) [nM] | IC50 (KRas^G12C) [nM] | IC50 (KRas^G12V) [nM] | IC50 (KRas^WT) [nM] | IC50 (KRas^G12S) [nM] | IC50 (KRas^Q61H) [nM] | IC50 (KRas^G12D) [nM] | IC50 [1] [nM] | IC50 [2] [nM]
1 | C[C@H](Oc1nc(-c2noc(C3(C)CCCc4sc(N)c(C#N)c43)n2)cc(N2C[C@@H]3C[C@H](C2)[C@H](O)C3)n1)[C@@H]1CCCN1C (stereo partly drawn) [Example 5, 2-amino-4-(3-(6-((1R,5R,6R)-6-hydroxy-3-azabicyclo[3.2.1]octan-3-yl)-2-((S)-1-((S)-1-methylpyrrolidin-2-yl)ethoxy)pyrimidin-4-yl)-1,2,4-oxadiazol-5-yl)-4-methyl-4,5,6,7-tetrahydrobenzo[b]thiophene-3-carbonitrile] | 250 | 269 | 38 | 313 | 62 | 69 | 265 | 233 | 413 |  | 
2 | C[C@H](Oc1nc(-c2noc(C3(C)CCCc4sc(N)c(C#N)c43)n2)cc(N2CCCn3nc(C(=O)N(C)C)cc3C2)n1)[C@@H]1CCCN1C (stereo partly drawn) [Example 6, 5-(6-(5-(2-amino-3-cyano-4-methyl-4,5,6,7-tetrahydrobenzo[b]thiophen-4-yl)-1,2,4-oxadiazol-3-yl)-2-((S)-1-((S)-1-methylpyrrolidin-2-yl)ethoxy)pyrimidin-4-yl)-N,N-dimethyl-5,6,7,8-tetrahydro-4H-pyrazolo[1,5-a][1,4]diazepine-2-carboxamide] | 1590 | 1080 | 669 | 1110 | 746 | 474 | 1520 | 1110 | 1830 | > 10000 | 7720
3 | C[C@H](Oc1nc(-c2cc(C3(C)CCCc4sc(N)c(C#N)c43)sn2)cc(N2C[C@H]3CC[C@@H](C2)N3)n1)[C@@H]1CCCN1C (stereo partly drawn) [Example 9, 4-(3-(6-((1R,5S)-3,8-diazabicyclo[3.2.1]octan-3-yl)-2-((S)-1-((S)-1-methylpyrrolidin-2-yl)ethoxy)pyrimidin-4-yl)isothiazol-5-yl)-2-amino-4-methyl-4,5,6,7-tetrahydrobenzo[b]thiophene-3-carbonitrile] | 3080 | 1320 | 1340 | 3490 | 1040 | 566 | 3420 | 2290 | 36 | ≥ 10000 | 3010
4 | C[C@H](Oc1nc(-c2cc(C3(C)CCCc4sc(N)c(C#N)c43)sn2)cc(N2CCCC3(C2)NC(=O)NC3=O)n1)[C@@H]1CCCN1C (stereo partly drawn) [Example 11, 2-amino-4-(3-(6-(2,4-dioxo-1,3,7-triazaspiro[4.5]decan-7-yl)-2-((S)-1-((S)-1-methylpyrrolidin-2-yl)ethoxy)pyrimidin-4-yl)isothiazol-5-yl)-4-methyl-4,5,6,7-tetrahydrobenzo[b]thiophene-3-carbonitrile] | 240 | 190 | 34 | 262 | 76 | 326 | 188 | 263 | 93 |  | 
5 | C[C@H](Oc1nc(-c2cc(C3(C)CCCc4sc(N)c(C#N)c43)sn2)cc(N2CCCn3nc(C(=O)N(C)C)cc3C2)n1)[C@@H]1CCCN1C (stereo partly drawn) [Example 12, 5-(6-(5-(2-amino-3-cyano-4-methyl-4,5,6,7-tetrahydrobenzo[b]thiophen-4-yl)isothiazol-3-yl)-2-((S)-1-((S)-1-methylpyrrolidin-2-yl)ethoxy)pyrimidin-4-yl)-N,N-dimethyl-5,6,7,8-tetrahydro-4H-pyrazolo[1,5-a][1,4]diazepine-2-carboxamide] | 551 | 584 | 156 | 457 | 163 | 417 | 596 | 533 | 623 |  | 

Now those with a lower IC50 (KRas^G12A), led by results:

Row | IC50 (KRas^G12A) [nM] | IC50 (KRas^G13D) [nM] | IC50 (KRas^G12R) [nM] | IC50 (KRas^G12C) [nM] | IC50 (KRas^G12V) [nM] | IC50 (KRas^WT) [nM] | IC50 (KRas^G12S) [nM] | IC50 (KRas^Q61H) [nM] | IC50 (KRas^G12D) [nM] | IC50 [1] [nM] | IC50 [2] [nM] | Compound
6 | 49 | 37 | 4 | 54 | 6 | 14 | 41 | 36 | 18 |  |  | C[C@H](Oc1nc(-c2noc(C3(C)CCCc4sc(N)c(C#N)c43)n2)cc(N2CCCC3(C2)NC(=O)NC3=O)n1)[C@@H]1CCCN1C (stereo partly drawn) [Example 2, 2-amino-4-(3-(6-(2,4-dioxo-1,3,7-triazaspiro[4.5]decan-7-yl)-2-((S)-1-((S)-1-methylpyrrolidin-2-yl)ethoxy)pyrimidin-4-yl)-1,2,4-oxadiazol-5-yl)-4-methyl-4,5,6,7-tetrahydrobenzo[b]thiophene-3-carbonitrile]
7 | 29 | 24 | 4 | 26 | 5 | 10 | 23 | 26 | 6 |  |  | C[C@H](Oc1nc(-c2noc(C3(C)CCCc4sc(N)c(C#N)c43)n2)cc(N2CCCC3(CNS(=O)(=O)N3)C2)n1)[C@@H]1CCCN1C (stereo partly drawn) [Example 4, 2-amino-4-(3-(6-(2,2-dioxido-2-thia-1,3,7-triazaspiro[4.5]decan-7-yl)-2-((S)-1-((S)-1-methylpyrrolidin-2-yl)ethoxy)pyrimidin-4-yl)-1,2,4-oxadiazol-5-yl)-4-methyl-4,5,6,7-tetrahydrobenzo[b]thiophene-3-carbonitrile]
8 | 132 | 128 | 23 | 174 | 46 | 129 | 158 | 170 | 127 | 4470 | 5840 | C[C@H](Oc1nc(-c2cc(C3(C)CCCc4sc(N)c(C#N)c43)sn2)cc(N2CCC[C@@](C)(O)C2)n1)[C@@H]1CCCN1C (stereo partly drawn) [Example 7, 2-amino-4-(3-(6-((R)-3-hydroxy-3-methylpiperidin-1-yl)-2-((S)-1-((S)-1-methylpyrrolidin-2-yl)ethoxy)pyrimidin-4-yl)isothiazol-5-yl)-4-methyl-4,5,6,7-tetrahydrobenzo[b]thiophene-3-carbonitrile]
9 | 204 | 167 | 59 | 275 | 96 | 160 | 296 | 224 | 505 | 3380 | 7400 | C[C@H](Oc1nc(-c2cc(C3(C)CCCc4sc(N)c(C#N)c43)sn2)cc(N2C[C@@H]3C[C@H](C2)[C@H](O)C3)n1)[C@@H]1CCCN1C (stereo partly drawn) [Example 8, 2-amino-4-(3-(6-((1R,5R,6R)-6-hydroxy-3-azabicyclo[3.2.1]octan-3-yl)-2-((S)-1-((S)-1-methylpyrrolidin-2-yl)ethoxy)pyrimidin-4-yl)isothiazol-5-yl)-4-methyl-4,5,6,7-tetrahydrobenzo[b]thiophene-3-carbonitrile]
